Values belong to the substance of their own block, whether it stands above or below them.
Columns and labels:
DLG1 PDZ2 = target: T1, DLG1 PDZ2 (Homo sapiens, UniProt Q12959); test: Phosphomimetic ProP-PD selection with NGS; type: binding; conditions: mean of selections 1-3, bait DLG1 PDZ2
T1 construct: human DLG1 PDZ2 aa 311–407 in a modified pRSET vector 40; made in house; host or cells: E. coli BL21 Gold (DE3)
Procedure: (§1) Phage selections were carried out for four rounds following a protocol by Huang and Sidhu (Huang & Sidhu, 2011) with minor modifications. Non‐specific binding phage was removed by pre‐selections against immobilized GST throughout the selection. The selections against the (pre‐)phosphorylated wild‐type library were performed in 50 mM HEPES (pH 7.4) and 150 mM NaCl (HBS) following the same procedure after pre‐phosphorylation of the library.
(§2) • Immobilize proteins (15 μg in 100 μl PBS) in a 96‐well MaxiSorp microtiter plate (NUNC) overnight at 4°C. • Start a 2YT culture of E. coli Omnimax supplemented with 100 μg/ml tetracycline to retain the F pilus epitope. • Block the wells with 200 μl 0.5% BSA in PBS for 2 h at 4°C. • Precipitate naïve phage library (10^11 cfu per selection) or amplified phage pool from the previous round of selection by adding one‐fifth the volume of PEG/NaCl. • Incubate on ice for 10 min, and pellet precipitated phage by centrifugation at 5,300 g for 15 min. Resuspend the phage pellet in 100 μl PBS per selection. • Add 100 μl of phage solution to the GST‐coated pre‐selection wells and incubate for 1 h. • Transfer the phage solution to the immobilized target proteins and allow it to bind for 2 h at 8°C. • Wash the plate four times with 200 μl cold wash buffer (PBS, 0.05% Tween‐20). • Elute bound phage by incubation with 100 μl log phase (0.6–0.8 OD600) E. coli Omnimax for 30 min at 37°C with shaking (200 RPM). • Add 10^12 cfu/ml M13K07 helper phage for hyperinfection of the bacteria and incubate as above for 45 min. • Transfer the bacterial culture to 10 ml 2YT supplemented with 50 μg/ml carbenicillin, 25 μg/ml kanamycin, and 300 μM IPTG and incubate overnight at 37°C while shaking. • Perform phage pool ELISA to monitor the progress of the selection as described previously (Huang & Sidhu, 2011).
(§3) The naïve library and the enriched phage pools of the third day of selection were amplified and barcoded by PCR and analyzed by NGS as described elsewhere (McLaughlin & Sidhu, 2013; Ivarsson et al, 2014). The reads were demultiplexed using the barcode sequences and filtered by discarding sequences with a Phred quality score under 30. Sequences were mapped to the original library using Bowtie (Langmead et al, 2009) with two mismatches between reads and library sequence. Nucleotide mutations leading to amino acid substitutions were subsequently removed. Cutoff values of NGS counts were assigned for each pool. PWMs were generated based on the remaining peptides (aligned on the C‐termini) using WebLogo (Crooks et al, 2004).
(§4) However, there was no significant correlation of the actual read counts (selection “strength”) and the initial representation in the library, reflecting the strong selection during phage display (wt+mimetic: P‐value: 0.49, ρ = −0.08, mimetic only: P‐value: 0.069, ρ = −0.2, wt only: P‐value: 0.12, ρ = 0.17). Consequently, the amount of reads for each binder after phage display is not a function of the amount of input reads in the naïve library and no modeling based on the input library frequencies to score the interactions is necessary. To allow for comparison between replicate selections, we used the fraction of NGS reads within a certain set, instead of the absolute number of NGS reads, as the absolute numbers differ between different NGS batches.

DLG1 PDZ1 = test: Phosphomimetic ProP-PD selection with NGS; type: binding, human; conditions: mean of selections 1-3, bait DLG1 PDZ1; for Mean fraction #NGS counts wt peptide / total counts selection: wild type peptide; for Mean fraction #NGS counts mimetic peptide / total count selection: phosphomimetic peptide
Procedure: as §1, §2, §3, §4

DLG1 PDZ3 = test: Phosphomimetic ProP-PD selection with NGS; type: binding, human; conditions: mean of selections 1-3; bait DLG1 PDZ3
Procedure: as §1, §2, §3, §4

Scribble PDZ3 = test: Phosphomimetic ProP-PD selection with NGS; type: binding, human; conditions: bait Scribble PDZ3
Procedure: as §1, §2, §3, §4

Scribble PDZ2 = test: Phosphomimetic ProP-PD selection with NGS; type: binding, human; conditions: bait Scribble PDZ2
Procedure: as §1, §2, §3, §4

Scribble PDZ1 [1] = target: T2, Scribble PDZ1 (Homo sapiens, UniProt Q14160); test: Phosphomimetic ProP-PD selection with NGS; type: binding; conditions: bait Scribble PDZ1; mean of selections 1-3
T2 construct: human Scribble PDZ1 aa 719–829 in; made in house; host or cells: E. coli BL21 Gold (DE3)
Procedure: as §1, §2, §3, §4

Scribble PDZ1 [2] = target: T2, Scribble PDZ1; test: Pre-phosphorylation ProP-PD: wild-type library treated with RPS6KA1 or not, selection with NGS; type: binding; conditions: for Phosphorylated selection Mean fraction: Pre-phosphorylation with RPS6KA1; for Phosphorylated selection Mean fraction / Unphosphorylated selection Mean fraction: mean of the two selections, bait Scribble PDZ1; for Unphosphorylated selection Mean fraction: Without Kinase
Procedure: For pre‐phosphorylation of the wild‐type ProP‐PD library, we obtained activated RPS6KA1 (Thermo Fisher). The time and amount of kinase required to phosphorylate the ProP‐PD library were tested in a phosphorylation assay.
as §1, §2
• Precipitate the naive wild‐type phage library (as described above, 1.8 × 10^10 cfu phage per selection). • Resuspend the precipitated phage pellets in 100 μl Kinase buffer per selection and add ATP (100 μM final concentration) and RPS6KA1 (500 ng/ml) to the phage solution. In parallel, prepare a negative control where only ATP is added to the phage pool. • Incubate the phosphorylation reaction for 2 h at room temperature. Stop the reaction through PEG/NaCl precipitation (as described above). • Resuspend the phage pool in 100 μl HBS.
During the 4 days of pre‐phosphorylation ProP‐PD selections, the input phage library of each day of selection was subjected to phosphorylation prior to phage selection.
as §3

[3] = mean of selections 1 and 2 (selection 3 empty)

T1 sequence (Q12959 311-407): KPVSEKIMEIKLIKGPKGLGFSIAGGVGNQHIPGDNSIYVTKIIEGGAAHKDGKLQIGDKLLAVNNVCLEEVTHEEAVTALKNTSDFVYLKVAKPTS
T2 sequence (Q14160 719-829): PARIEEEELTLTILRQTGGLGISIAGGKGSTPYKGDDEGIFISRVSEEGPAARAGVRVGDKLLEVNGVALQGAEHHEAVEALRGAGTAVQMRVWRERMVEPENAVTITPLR

Substance: TIKLKTSFF
- Mean fraction #NGS counts wt peptide / total counts selection (DLG1 PDZ2; wild type peptide): 4.36e-5
- Mean fraction #NGS counts wt peptide / total counts selection (DLG1 PDZ1): 0
- Mean fraction #NGS counts wt peptide / total counts selection (DLG1 PDZ3): 3.092e-5
- Mean fraction #NGS counts wt peptide / total counts selection (Scribble PDZ3; mean over selections 1-3): 4.802e-5

Substance: TNSSSYSHI
- Mean fraction #NGS counts wt peptide / total counts selection (DLG1 PDZ3): 0.001855

Substance: TMFLRETEL
- Mean fraction #NGS counts mimetic peptide / total count selection (DLG1 PDZ2): 0.0007019
- Mean fraction #NGS counts mimetic peptide / total count selection (Scribble PDZ1 [1]): 0.8115
- Mean fraction #NGS counts mimetic peptide / total count selection (DLG1 PDZ1): 0.002709
- Mean fraction #NGS counts mimetic peptide / total count selection (Scribble PDZ2; mean over selections): 0.1922
- Mean fraction #NGS counts mimetic peptide / total count selection (Scribble PDZ3; mean over selections 1-3): 0.4954

Substance: LPHSPHSHL [AAAS]
- Phosphorylated selection Mean fraction (Scribble PDZ1 [2]): 6.993e-6
- Unphosphorylated selection Mean fraction (Scribble PDZ1 [2]): 4.139e-6

Substance: TMFLRETSL
- Mean fraction #NGS counts wt peptide / total counts selection (DLG1 PDZ2): 0.0002151
- Mean fraction #NGS counts wt peptide / total counts selection (Scribble PDZ1 [1]): 0.01417
- Mean fraction #NGS counts wt peptide / total counts selection (DLG1 PDZ1): 0.0004495
- Mean fraction #NGS counts wt peptide / total counts selection (Scribble PDZ2; mean over selections): 0.008166
- Mean fraction #NGS counts wt peptide / total counts selection (Scribble PDZ3; mean over selections 1-3): 0.0186

Substance: KRSFIESNV
- Mean fraction #NGS counts wt peptide / total counts selection (DLG1 PDZ2; wild type peptide): 0.007809
- Mean fraction #NGS counts wt peptide / total counts selection (Scribble PDZ1 [1]): 0.03115
- Mean fraction #NGS counts wt peptide / total counts selection (DLG1 PDZ1): 0.0007809
- Mean fraction #NGS counts wt peptide / total counts selection (Scribble PDZ2; [3]): 0.2119
- Mean fraction #NGS counts wt peptide / total counts selection (Scribble PDZ3; mean over selections 1-3): 0.07707

Substance: TMFLRETSL‐coo‐
- proportion of NGS counts, pre‐phosphorylated library relative to unphosphorylated library (fold) (Scribble PDZ1 [2]; phage-displayed peptide, library treated with RPS6KA1, selection against Scribble PDZ1, n = 2): 3 ×

Substance: YPGSPDSWV
- Mean fraction #NGS counts wt peptide / total counts selection (DLG1 PDZ2): 0.0005284
- Mean fraction #NGS counts wt peptide / total counts selection (DLG1 PDZ1): 3.476e-5
- Mean fraction #NGS counts wt peptide / total counts selection (Scribble PDZ2; [3]): 0.2284

Substance: YSPSMTMSV
- Mean fraction #NGS counts wt peptide / total counts selection (DLG1 PDZ3): 7.133e-5

Substance: LPKIKETTV [FRMPD4]
- Phosphorylated selection Mean fraction (Scribble PDZ1 [2]): 0.001062
- Unphosphorylated selection Mean fraction (Scribble PDZ1 [2]): 0.0007483

Substance: SRDRKEESI
- Mean fraction #NGS counts mimetic peptide / total count selection (DLG1 PDZ2): 0
- Mean fraction #NGS counts mimetic peptide / total count selection (DLG1 PDZ3): 5.904e-6
- Mean fraction #NGS counts mimetic peptide / total count selection (Scribble PDZ3; mean over selections 1-3): 2.019e-6

Substance: KGRAKGEPV
- Mean fraction #NGS counts mimetic peptide / total count selection (DLG1 PDZ3): 0

Substance: TMFLRETSL [GUCY1A2]
- Phosphorylated selection Mean fraction (Scribble PDZ1 [2]): 0.5527
- Unphosphorylated selection Mean fraction (Scribble PDZ1 [2]): 0.1808

Substance: GGKRKEELV
- Mean fraction #NGS counts mimetic peptide / total count selection (DLG1 PDZ2): 0.0001104
- Mean fraction #NGS counts mimetic peptide / total count selection (DLG1 PDZ1): 3.0718e-6
- Mean fraction #NGS counts mimetic peptide / total count selection (DLG1 PDZ3): 0
- Mean fraction #NGS counts mimetic peptide / total count selection (Scribble PDZ3; mean over selections 1-3): 0

Now from value to substance, other results behind:

- Mean fraction #NGS counts mimetic peptide / total count selection (DLG1 PDZ2; phosphomimetic peptide): 0.002811
Substance: EIKLKTSFF
- Mean fraction #NGS counts mimetic peptide / total count selection (DLG1 PDZ1): 0.06227
- Mean fraction #NGS counts mimetic peptide / total count selection (DLG1 PDZ3): 0.01375
- Mean fraction #NGS counts mimetic peptide / total count selection (Scribble PDZ3; mean over selections 1-3): 6.807e-5

- Mean fraction #NGS counts mimetic peptide / total count selection (DLG1 PDZ2): 5.021e-5
Substance: VVHTPETEV
- Mean fraction #NGS counts mimetic peptide / total count selection (DLG1 PDZ1): 0.0004495
- Mean fraction #NGS counts mimetic peptide / total count selection (Scribble PDZ2; mean over selections): 0.0009495
- Mean fraction #NGS counts mimetic peptide / total count selection (Scribble PDZ3; mean of selections 1-3, phosphomimetic peptide): 1.817e-5

- Mean fraction #NGS counts mimetic peptide / total count selection (DLG1 PDZ2): 0
Substance: RQTEYQGVL
- Mean fraction #NGS counts mimetic peptide / total count selection (DLG1 PDZ3): 3.59e-6

- Phosphorylated selection Mean fraction (Scribble PDZ1 [2]): 0
- Unphosphorylated selection Mean fraction (Scribble PDZ1 [2]): 1.381e-5
Substance: SRDRKETSI [RALBP1]

- Phosphorylated selection Mean fraction (Scribble PDZ1 [2]): 7.3245e-6
- Unphosphorylated selection Mean fraction (Scribble PDZ1 [2]): 0
Substance: VWLRKETRV [CYSLTR2]

- Phosphorylated selection Mean fraction (Scribble PDZ1 [2]): 3.213e-5
- Unphosphorylated selection Mean fraction (Scribble PDZ1 [2]): 3.175e-5
Substance: TKGISITSI [GNRHR2]

- Phosphorylated selection Mean fraction (Scribble PDZ1 [2]): 0.0004582
- Unphosphorylated selection Mean fraction (Scribble PDZ1 [2]): 1.656e-5
Substance: SIDLWETAL [SLC15A5]

From article PMC6100724, “Proteome‐wide analysis of phospho‐regulated PDZ domain interactions” (Molecular Systems Biology, 2018)
